Like-named read-outs stand apart in the source and are kept apart here.
Key:
SOD1^G93A−Tg mice [1] = experiment: Efficacy of feeding combined with i.p. injection in SOD1G93A-Tg ALS mice; format: in vivo, mouse; settings: daily feeding from 7 weeks plus i.p. twice weekly from 11 weeks; vehicle about 80%
Protocol: Age-matched WT mice were tested as positive control. […] Mouse movement was recorded.
Meier survival curve of SOD1G93A-Tg ALS mouse model.
Lifespan of PRG-A-01 data was collected from
SOD1G93A-Tg ALS mouse model.

SK-N-SH cells = experiment: Cell viability (MTT); format: cell-based; settings: neuron cell line, 48 hr
Protocol: (§1) Cells were incubated with 0.5 mg/mL of MTT solution (475989; Merck, Darmstadt, Germany) for 4 h at 37 °C. After removing excess solution and washing with PBS, the precipitated materials were dissolved in 200 μL DMSO and quantified by measuring absorbance at 540 nm.
(§2) Fig. S1. Optimized inhibitor reduces SOD1 aggregation. a, Mutant SOD1s induced WT-SOD1 aggregation. Testing the selected chemicals to check the inhibitory effect on SOD1 aggregation .HEK293 cells were transfected with MT-SOD1 vectors (A4V, G 93 A) and treated with selected chemicals ([…]). After incubation, transfected cells were harvested with TNNI buffer and fixed with 0.04% glutaraldehyde (Glu) for 30min. Samples were separated using SDS-PAGE. b-c, PRG-A-04 inhibited SOD1 inclusions in SK-N-SH cells. […] After incubation, cells were fixed with 4 % PFA and observed under the fluorescence microscope. (c) Cells with SOD1 inclusions (white arrows; strong intensity of SOD1) were counted by photomicrographs and the percentages were shown with standard deviation (SD). For cell counting, ten fluorescence images were randomly selected. […]
(§3) show cytotoxicity. To know the toxic effect of PRG-A-04 , human normal fibroblast (f) and neuron cells (g) were incubated with PRG -A-04 for 48 hr dose dependently and measured the viability through MTT assay .“Con” means Dimethyl sulfoxide (DMSO) -treated control . […]

human normal fibroblast = experiment: Cell viability (MTT); format: cell-based; settings: 48 hr
Protocol: as §1, §2, §3

Plasma stability [2] = format: in vitro ADME; settings: beagle dog plasma, after 120 min of incubation
Plasma stability [3] = format: in vitro ADME; settings: SD rat plasma, after 120 min of incubation
Plasma stability [4] = format: in vitro ADME; settings: CD-1 mouse plasma, after 120 min of incubation
[5] = Metabolic stability in liver microsomes; format: in vitro ADME; settings: human liver microsomes
[6] = BBB-PAMPA (parallel artificial membrane permeability assay); settings: PAMPA, 4 hour, 10 µM
Excerpt: Next, we checked the basic in vitro ADME test including pharmacokinetics, plasma protein binding, CYP (Cytochrome P450) inhibition, metabolic stability and blood–brain barrier (BBB) permeability. […] We also plan to test safety panel assay in the future to obtain safety data for the drug.
Fig. S8. […]

SOD1^G93A−Tg mice [7] = experiment: Efficacy of oral (p.o., ASD) administration in SOD1G93A-Tg ALS mice
Protocol: For mice with p.o. injection, the mice were trained for 2 weeks from the age of 7 weeks, and the rotarod test was performed from 9 weeks. Age-matched WT mice were tested as positive control. […] Mouse movement was recorded. The recorded video file was further analyzed using the EthoVision XT 15 software (Noldus, Wageningen, Netherlands).

misfolded MT-SOD1 = experiment: Dot blot with misfolded SOD1-specific antibody; format: cell-based; settings: 24 h treatment
Protocol: To detect misfolded SOD1 expression, cells transfected with SOD1 vectors were treated with PRG-A-04 for 24 h. After incubation, cells were lysed with […] NN buffer (50 mmol/L Tris–Cl, pH 7.5, 150 mmol/L NaCl, 0.3% NP-40), and then cell lysates were immobilized on nitrocellulose membrane using the Bio-Dot SF Microfiltration apparatus (Bio-Rad Laboratories, Hercules, CA). The membrane was washed with TBS and blocked by 5% BSA to remove background for 1 h. After blocking, the membrane was incubated with antibody for misfolded SOD1 (1:2000) or actin (1:10,000 in 1% skim milk containing TBST) for 30 min, then reacted with secondary antibody (goat anti-mouse IgG-horseradish peroxidase, 1:50,000 in 1% skim milk blocking buffer) for 30 min. Proteins were detected with ECL and X-ray film exposure. Actin was used as the loading control.

CYP 3A = experiment: CYP inhibition (direct)
Excerpt: Fig. S8. Preclinical data of PRG-A-04 a Plasma protein binding b CYP inhibition(direct) […]
d Mouse Brain Tissue penetration
For the convenience of calculation, […]

Plasma stability [8] = format: in vitro ADME; settings: human plasma, after 120 min of incubation

COc1cc(C=CCOC2Cc3cc4ccc(=O)oc4cc3OC2(C)C)ccc1[N+](=O)[O-] (stereo not drawn) [PRG-A-04]
reduction of motility (rotarod latency) at 18 weeks (SOD1^G93A−Tg mice [1]): 50% | cytotoxicity (SK-N-SH cells): without severe cytotoxicity | cytotoxicity (human normal fibroblast): without severe cytotoxicity | stability in plasma (Plasma stability [2]): stable | stability in plasma (Plasma stability [3]): stable | stability in plasma (Plasma stability [4]): stable | extent of metabolism in liver microsomes [5]: moderately metabolized | Mean Pe [6]: 0.418 ×10⁻⁶ cm/s | extension of lifespan of ALS mice (SOD1^G93A−Tg mice [7]; oral administration): up to 3 weeks | toxicity on oral administration (SOD1^G93A−Tg mice [7]; p.o. twice a week from 9 weeks): without toxicity | reduction of movement (rotarod latency) at 17 weeks (SOD1^G93A−Tg mice [7]; p.o. twice a week from 9 weeks, dose not stated, vehicle about 73%): 45% | effect on misfolding SOD1 (misfolded MT-SOD1): reduction in misfolding SOD1 | IC50 (CYP 3A): > 10 µM | IC50 (CYP 3A; read-out: IC50, DI, CYP 3A(midazolam), direct inhibition): > 10 µM | stability in plasma (Plasma stability [8]): stable

Reference: article PMC12067741, “Inhibition of SOD1 trimerization is a novel drug target for ALS disease” (Translational Neurodegeneration, 2025)
